Results published in patent US8173695B2, “Kappa selective opioid receptor antagonist” (Eli Lilly and Company, priority 2008, dated 2012).
Where “and” joins values, the source holds several entries; their conditions need not be identical. Equal values may be shown once.

Legend:
[1] = target: T1, kappa receptors (striatum) (Rattus norvegicus, UniProt P34975); experiment: Opioid receptor occupancy (RO) in rat brain, tracer GR103545; type: in vivo; conditions: 5.5 hrs following oral administration
T1 construct: dose-dependent level of kappa receptor occupancy in the striatum; from tissue; host or cells: striatum of living Sprague Dawley rats

[2] = target: T2, delta receptors (striatum) (Rattus norvegicus, UniProt P33533); experiment: Opioid receptor occupancy (RO) in rat brain, tracer naltriben; type: in vivo
T2 construct: from tissue; host or cells: striatum of living Sprague Dawley rats

[3] = Brain (striatum) exposure levels after oral dosing, LC/MS/MS; type: in vivo; conditions: male, Sprague Dawley (Harlan), rat striatum
Procedure: (§1) Male Harlan Sprague Dawley rats are treated with the compound of Example 1A of the present invention using a 3% lactic acid/water oral formulation at doses of […], 0.3, 1, 3, 10 and 30 mg/kg. […] The increasing levels of kappa receptor occupancy are driven by roughly proportional increases in plasma and brain exposure of the compound of Example 1A of the present invention up to a dose of 30 mg/kg.
Exposure levels of the compound of Example 1A in the rat striatum following administration were determined in the same samples used to quantify the level of opioid receptor occupancy. Levels of Example 1A are detected by LC/MS/MS (API 4000, MDS Sciex) and quantified from a standard curve of Example 1A prepared in rat brain homogenate.

[4] = Plasma exposure after oral dosing, LC/MS/MS; type: in vivo; conditions: male, Sprague Dawley (Harlan), rat plasma, read-out: Plasma Levels
Procedure: as §1
Plasma exposure of Example 1A of the present invention in the rat following administration is determined from plasma isolated from trunk blood collected at the time of tissue collection for receptor occupancy. Levels of the compound of Example 1A are detected by LC/MS/MS (API 4000, MDS Sciex) and quantified from a standard curve of Example 1A prepared in vehicle treated rat plasma.

[5] = tested on: alcohol preferring (P) rats; experiment: P rat 12 hr ethanol drinking; type: in vivo; conditions: p<0.05 versus vehicle
Procedure: The test animals are selectively-bred alcohol preferring (P) rats. These rats voluntarily consume more than 5 g/kg of ethanol per day and meet all of the perceived criteria for an animal model of alcoholism. They attain blood alcohol contents between 50-200 mg %; they will operant respond to obtain ethanol; they consume ethanol for pharmacological effects and not taste, smell or caloric properties; and they develop metabolic and physiological tolerance and eventually dependence with chronic ethanol access.
Female P rats are obtained from a breeding facility at the Indiana University Medical Center in Indianapolis, Ind., USA. Rats are individually housed in an environmentally controlled facility and maintained on a 12 hr light/dark cycle (lights off at 1500 hours).
All drugs are mixed fresh prior to use and administered in a volume of 1 mL/kg. […]
Following a 4-day acclimation to the colony, rats receive homecage access to a bottle of EtOH (10% v/v; Ancare, Bellmore, N.Y.) in addition to the standard bottle of water. […] Consumption of EtOH and water are monitored for approximately 6-9 months prior to drug testing. Food and fluid intake are measured via force transduction with a PC-controlled Drinking & Feeding Monitoring System (TSE Systems, Bad Homburg, Germany). Consumption of food, water, and 15% (v/v) EtOH are continuously monitored for 12 hrs following drug or vehicle administration. […]

Male Fischer F-344 rats = experiment: Stress-induced hyperthermia (in rat); type: in vivo; conditions: for stress-induced hyperthermia (T2−T1): in °C
Sprague Dawley rats [6] = experiment: Prepulse inhibition, reversal of U69593 induced disruption of PPI; type: in vivo, rat
Sprague Dawley rats [7] = experiment: Prepulse inhibition, reversal of morphine induced disruption of PPI; type: in vivo, rat
[8] = Study 1, 1, 3 and 10 mg/kg p.o.

T2 sequence (P33533 whole entry): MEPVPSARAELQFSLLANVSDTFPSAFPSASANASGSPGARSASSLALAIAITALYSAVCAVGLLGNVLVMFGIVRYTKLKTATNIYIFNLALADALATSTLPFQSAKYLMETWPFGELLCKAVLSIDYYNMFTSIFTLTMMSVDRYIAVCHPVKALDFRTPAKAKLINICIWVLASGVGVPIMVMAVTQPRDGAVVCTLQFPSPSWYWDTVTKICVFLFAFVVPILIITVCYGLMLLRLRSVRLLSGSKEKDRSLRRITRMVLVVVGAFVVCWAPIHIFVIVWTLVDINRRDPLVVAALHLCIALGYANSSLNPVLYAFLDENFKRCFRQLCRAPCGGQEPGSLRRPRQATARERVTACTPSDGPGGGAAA
T1 sequence (P34975 whole entry): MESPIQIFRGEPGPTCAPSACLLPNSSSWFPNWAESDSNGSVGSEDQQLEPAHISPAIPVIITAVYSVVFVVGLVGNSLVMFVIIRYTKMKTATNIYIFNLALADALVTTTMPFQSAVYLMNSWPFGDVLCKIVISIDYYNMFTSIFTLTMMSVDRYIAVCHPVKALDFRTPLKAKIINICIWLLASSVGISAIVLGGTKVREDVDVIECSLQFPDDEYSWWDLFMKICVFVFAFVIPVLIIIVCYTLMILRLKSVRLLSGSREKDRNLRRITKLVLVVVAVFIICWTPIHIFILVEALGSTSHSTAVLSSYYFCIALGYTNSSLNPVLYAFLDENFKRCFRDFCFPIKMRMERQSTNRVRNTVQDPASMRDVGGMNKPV

Cc1cc(C)cc([C@@H]2CCCN2Cc2ccc(Oc3ccc(C(N)=O)cc3F)cc2)c1 (single isomer, unassigned) [Example 1A]
ED50 [1]: 0.45 mg/kg
ED50 ([2]; oral): > 30 mg/kg
delta receptor occupancy ([2]; oral doses up to 30 mg/kg): no significant occupancy
concentration at 5.5 h ([3]; 0.1 mg/kg, oral dose .1 mg/kg): 15.3 ng/g
concentration at 5.5 h ([3]; 0.3 mg/kg, oral dose .3 mg/kg): 7.23 ng/g
concentration at 5.5 h ([3]; oral dose 1 mg/kg): 19.6 ng/g
concentration at 5.5 h ([3]; oral dose 3 mg/kg): 39.2 ng/g
concentration at 5.5 h ([3]; oral dose 10 mg/kg): 171 ng/g
concentration at 5.5 h ([3]; oral dose 30 mg/kg): 266 ng/g
concentration at 5.5 h ([4]; 0.1 mg/kg, oral dose .1): 1.17 ng/g
concentration at 5.5 h ([4]; 0.3 mg/kg, oral dose .3): 2.27 ng/g
concentration at 5.5 h ([4]; 1 mg/kg, oral dose 1): 4.63 ng/g
concentration at 5.5 h ([4]; 3 mg/kg, oral dose 3): 15.4 ng/g
concentration at 5.5 h ([4]; 10 mg/kg, oral dose 10): 65.2 ng/g
concentration at 5.5 h ([4]; 30 mg/kg, oral dose 30): 106 ng/g
amount of ethanol consumed ([5]; 1 mg/kg orally): decreased
amount of ethanol consumed ([5]; 3 mg/kg orally): decreased
stress-induced hyperthermia (T2−T1) (Male Fischer F-344 rats; Study 1, 1 mg/kg po, 60 min pretreatment, body temperature in degrees C.): 0.84±0.07
stress-induced hyperthermia (T2−T1) (Male Fischer F-344 rats; Study 1, 3 mg/kg po, 60 min pretreatment): 0.80±0.10
stress-induced hyperthermia (T2−T1) (Male Fischer F-344 rats; Study 1, 10 mg/kg po, 60 min pretreatment): 0.75±0.11
baseline core body temperature (Male Fischer F-344 rats; [8]): not affected
reduction in stress-induced hyperthermia (T2−T1), in words (Male Fischer F-344 rats; [8]): dose-dependent, but non-significant, reduction
stress-induced hyperthermia (T2−T1) (Male Fischer F-344 rats; Study 2, 10 mg/kg Example 1A alone, po): 0.74±0.04
baseline core body temperature (Male Fischer F-344 rats; Study 2, 1, 3 and 10 mg/kg p.o. together with 1 mg/kg chlordiazepoxide): not affected
reduction in stress-induced hyperthermia, in words (Male Fischer F-344 rats; Study 2, together with 1 mg/kg chlordiazepoxide, significant reduction p<0.05): increases the efficacy of a sub-threshold dose of chlordiazepoxide
% Inhibition (PPI), individual rats (Sprague Dawley rats [6]; 0.1 mg/kg Example 1A p.o./3.0 mg/kg U-69593 sc): 29.86% and 55.18% and 22.97% and 54.62% and 31.90% and 9.79% and 25.88% and 31.40%
% Inhibition (PPI), individual rats (Sprague Dawley rats [6]; 0.3 mg/kg Example 1A p.o./3.0 mg/kg U-69593 sc): 33.74% and −1.75% and 52.00% and 47.01% and 0.52% and 42.14% and 66.71% and 71.91%
% Inhibition (PPI), individual rats (Sprague Dawley rats [6]; 1.0 mg/kg Example 1A p.o./3.0 mg/kg U-69593 sc): 30.08% and 52.23% and 24.91% and 70.96% and 55.10% and 71.68% and 61.05% and 59.31%
reversal of sensory motor gating deficits induced by the Kappa agonist U-69593 (Sprague Dawley rats [6]; rats, Table 6): can reverse
% Inhibition (PPI), individual rats (Sprague Dawley rats [7]; 10 mg/kg Example 1A p.o./20 mg/kg morphine sc): 42.77% and 21.98% and 40.70% and 0.18% and 21.00% and 21.21% and 50.34% and 26.48% and 18.04% and 21.07% and 29.49% and 50.16% and 18.66% and 63.46%
% Inhibition (PPI), individual rats (Sprague Dawley rats [7]; 30 mg/kg Example 1A p.o./20 mg/kg morphine sc): 30.93% and 6.85% and 16.56% and 54.32% and 18.94% and 45.40% and 42.78% and 46.29% and 39.26% and 20.35% and 40.02% and 8.61% and 57.12% and 41.32%
reversal of sensory motor gating deficits induced by the Mu agonist morphine (Sprague Dawley rats [7]; rats, Table 7): can reverse
